For the test, the target named is T1, α4β1 integrin (Homo sapiens, UniProt P05556+P13612).
T1 construct: endogenous in cells; host or cells: U-937 cells
Nature of the test: U-937 cell adhesion to human VCAM-1 (α4β1 binding assay). In kind it is cell-based. The settings on record: U-937 cells, immobilized human VCAM-1; read-out: IC50 values in the α4β1 assays. Here is the method: U-937 Cell Adhesion to Human VCAM-1 (α4β1 Binding Assay)
Recombinant human soluble VCAM-1 (R&D Systems Ltd., UK) at 2 μg/ml in PBS was immobilized overnight onto microtiter plates. Unbound VCAM-1 was washed away and VCAM-1 coated plates were blocked with bovine serum albumin (BSA) 2,5% in PBS for 2 h at room temperature. U-937 cells were labelled with 5-carboxyfluorescein diacetate (5-CFDA) in order to detect bound cells to the wells. Test compounds were added to the wells followed by U-937 cells and the adhesion assay was performed for 1 h at 37° C. Following incubation, the wells were emptied and washed. Inhibition of binding was measured by the quantity of fluorescence bound to the plate for each of the various concentrations of test compound, as well as for controls containing no test compound, with a Cytofluor 2300 fluorescence measurement system.

IC50 data for 32 compounds are collected here from patent US7253171B2 (Laboratorios Almirall, S.A., priority 2001, dated 2007).

Molecules are shown by their SMILES. Some results are limits rather than exact numbers.

One may read the IC50 as the concentration that gives 50% inhibition.

T1 sequence (P13612 34-1032): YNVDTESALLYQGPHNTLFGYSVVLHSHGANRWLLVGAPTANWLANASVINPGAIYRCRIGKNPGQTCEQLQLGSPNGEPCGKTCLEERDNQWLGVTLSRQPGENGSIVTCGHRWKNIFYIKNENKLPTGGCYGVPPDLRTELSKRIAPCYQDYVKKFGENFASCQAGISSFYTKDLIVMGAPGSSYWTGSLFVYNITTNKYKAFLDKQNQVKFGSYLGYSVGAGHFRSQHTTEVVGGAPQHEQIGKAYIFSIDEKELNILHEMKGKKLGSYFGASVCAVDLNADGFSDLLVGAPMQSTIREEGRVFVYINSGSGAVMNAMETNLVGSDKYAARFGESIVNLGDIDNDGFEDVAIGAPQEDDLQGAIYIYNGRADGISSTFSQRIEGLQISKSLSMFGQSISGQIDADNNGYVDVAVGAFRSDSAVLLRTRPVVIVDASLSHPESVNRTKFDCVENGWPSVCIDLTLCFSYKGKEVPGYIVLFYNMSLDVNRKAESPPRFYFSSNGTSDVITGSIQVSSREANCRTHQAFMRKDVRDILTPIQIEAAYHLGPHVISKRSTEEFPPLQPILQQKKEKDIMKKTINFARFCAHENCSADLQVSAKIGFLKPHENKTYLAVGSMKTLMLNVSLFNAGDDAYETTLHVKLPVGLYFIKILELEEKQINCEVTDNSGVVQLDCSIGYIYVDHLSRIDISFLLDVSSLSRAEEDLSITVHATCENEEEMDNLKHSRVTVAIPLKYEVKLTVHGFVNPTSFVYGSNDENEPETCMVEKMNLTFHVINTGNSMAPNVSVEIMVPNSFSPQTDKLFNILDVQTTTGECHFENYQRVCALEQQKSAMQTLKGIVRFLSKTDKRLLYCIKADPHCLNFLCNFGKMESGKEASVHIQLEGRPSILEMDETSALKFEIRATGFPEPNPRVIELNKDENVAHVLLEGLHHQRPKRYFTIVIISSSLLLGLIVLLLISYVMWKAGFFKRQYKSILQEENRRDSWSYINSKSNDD
T1 sequence (P05556 21-798): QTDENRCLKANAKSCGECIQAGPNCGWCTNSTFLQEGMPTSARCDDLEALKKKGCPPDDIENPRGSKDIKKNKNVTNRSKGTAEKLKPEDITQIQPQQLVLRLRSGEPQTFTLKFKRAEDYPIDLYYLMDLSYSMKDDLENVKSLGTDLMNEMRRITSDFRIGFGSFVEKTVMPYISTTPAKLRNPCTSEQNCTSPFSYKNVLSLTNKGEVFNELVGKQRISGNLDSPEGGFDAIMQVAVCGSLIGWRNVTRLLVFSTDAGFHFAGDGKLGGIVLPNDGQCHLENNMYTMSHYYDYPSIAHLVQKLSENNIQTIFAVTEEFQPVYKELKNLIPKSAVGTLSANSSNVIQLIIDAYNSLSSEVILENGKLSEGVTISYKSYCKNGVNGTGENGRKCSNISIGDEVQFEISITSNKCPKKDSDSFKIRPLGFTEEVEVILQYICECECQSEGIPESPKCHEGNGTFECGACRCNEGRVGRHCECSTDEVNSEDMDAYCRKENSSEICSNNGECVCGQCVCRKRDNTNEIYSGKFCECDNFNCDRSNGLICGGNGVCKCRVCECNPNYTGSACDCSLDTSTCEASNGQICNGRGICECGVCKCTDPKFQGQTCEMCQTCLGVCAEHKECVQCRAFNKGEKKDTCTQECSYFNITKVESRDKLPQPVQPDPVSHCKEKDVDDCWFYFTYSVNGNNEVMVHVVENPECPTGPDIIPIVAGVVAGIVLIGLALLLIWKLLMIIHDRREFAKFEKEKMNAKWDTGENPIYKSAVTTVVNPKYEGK

For `O=C(Nc1ccccc1S(=O)(=O)c1ccccc1)N[C@@H](Cc1ccc(NC(=O)c2c(Cl)cncc2Cl)cc1)C(=O)O` [Example 70, (S)-2-[3-(2-Benzenesulfonylphenyl)ureido]-3-{4-[(3,5-dichloropyridine-4-carbonyl)amino]phenyl}propionic acid], the 50% inhibitory concentration (IC50) was under 100 nM. The result for `CN(C(=O)N[C@@H](Cc1ccc(NC(=O)c2c(Cl)cccc2Cl)cc1)C(=O)O)c1ccccc1C(=O)N(C)C1CCCCC1` [Example 32] reads under 100 nM; that for `O=C(Nc1cccc(C(=O)c2ccccc2)c1)N[C@@H](Cc1ccc(NC(=O)c2c(Cl)cncc2Cl)cc1)C(=O)O` [Example 77, (S)-3(4-{[1-(3,5-Dichloropyridin-4-yl)methanoyl]amino}phenyl)-2-{3-[3-(1-phenylmethanoyl)phenyl]ureido}propionic acid], under 100 nM; that for `CN(C(=O)c1ccccc1NC(=O)N[C@@H](Cc1ccc(NC(=O)c2c(Cl)cncc2Cl)cc1)C(=O)O)C1CCCCC1` [Example 80], under 100 nM. Take `COc1ccc(OC)c(S(=O)(=O)c2ccc(Cl)cc2NC(=O)N[C@@H](Cc2ccc(NC(=O)c3c(Cl)cncc3Cl)cc2)C(=O)O)c1` [Example 64, (S)-2-{3-[5-Chloro-2-(2,5-dimethoxybenzenesulfonyl)phenyl]ureido}-3-{4-[(3,5-dichloropyridine-4-carbonyl)amino]phenyl}propionic acid]: the IC50 was under 100 nM. Take `COc1cncc(OC)c1C(=O)Nc1ccc(C[C@H](NC(=O)Nc2ccccc2S(=O)(=O)c2ccccc2)C(=O)O)cc1` [Example 105, (S)-2-[3-(2-Benzenesulfonylphenyl)ureido]-3-(4-{[1-(3,5-dimethoxypyridin-4-yl)-methanoyl]amino}phenyl)propionic acid]: the concentration for half-maximal inhibition (IC50) is under 100 nM. `Cc1ccc(S(=O)(=O)c2ccc(Cl)c(NC(=O)N[C@@H](Cc3ccc(NC(=O)c4c(Cl)cccc4Cl)cc3)C(=O)O)c2)cc1` [Example 54, (S)-2-{3-[2-Chloro-5-(toluene-4-sulfonyl)phenyl]ureido}-3-[4-(2,6-dichlorobenzoylamino)phenyl]propionic acid]: the IC50 was under 100 nM. As to `CCCCN(Cc1cccs1)S(=O)(=O)c1ccccc1NC(=O)N[C@@H](Cc1ccc(NC(=O)c2c(Cl)cccc2Cl)cc1)C(=O)O` [Example 20, (S)-2-{3-[2-(Butylthiophen-2-ylmethylsulfamoyl)phenyl]ureido}-3-[4-(2,6-dichlorobenzoylamino)phenyl]propionic acid], the IC50 is under 100 nM.

Take `O=C(Nc1ccccc1Sc1ccccc1)N[C@@H](Cc1ccc(NC(=O)c2c(Cl)cccc2Cl)cc1)C(=O)O` [Example 44, (S)-3-[4-(2,6-Dichlorobenzoylamino)phenyl]-2-[3-(2-phenylsulfanylphenyl)ureido]propionic acid]: the IC50 was under 100 nM. The same measure for `O=C(Nc1ccccc1S(=O)(=O)c1ccccc1)N[C@@H](Cc1ccc(Nc2nccc3cnccc23)cc1)C(=O)O` [Example 122, (S)-2-[3-(2-Benzenesulfonylphenyl)ureido]-3-[4-([2,6]naphthyridin-1-ylamino)phenyl]propionic acid]: under 100 nM; for `CN(C(=O)c1ccccc1NC(=O)N[C@@H](Cc1ccc(NC(=O)c2c(Cl)cccc2Cl)cc1)C(=O)O)C1CCCCC1` [Example 2]: under 100 nM.

Take `O=C(Nc1ccccc1S(=O)(=O)c1ccccc1)N[C@@H](Cc1ccc(NC(=O)c2c(Cl)cccc2Cl)cc1)C(=O)O` [Example 36, (S)-2-[3-(2-Benzenesulfonylphenyl)ureido]-3-[4-(2,6-dichlorobenzoylamino)phenyl]propionic acid]: the half-inhibitory concentration (IC50) was under 100 nM.

Take `CN(C(=O)N[C@@H](Cc1ccc(NC(=O)c2c(Cl)cncc2Cl)cc1)C(=O)O)c1ccccc1S(=O)(=O)N1CCCCC1` [Example 88, (S)-3-(4-{[1-(3,5-Dichloropyridin-4-yl)methyanoyl]amino}phenyl)-2-{3-methyl-3-[2-(piperidine-1-sulfonyl)phenyl]ureido}propionic acid.]: the half-inhibitory concentration (IC50) was under 100 nM. The same measure for `CN(C(=S)N[C@@H](Cc1ccc(NC(=O)c2c(Cl)cncc2Cl)cc1)C(=O)O)c1ccccc1Cc1ccccc1` [Example 144, (S)-2-[3-(2-Benzylphenyl)-3-methylthioureido]-3-(4-{[1-(3,5-dichloropyridin-4-yl)methanoyl]amino}phenyl)propionic acid]: under 100 nM. Regarding `O=C(Nc1ccccc1S(=O)(=O)NCc1cccs1)N[C@@H](Cc1ccc(NC(=O)c2c(Cl)cccc2Cl)cc1)C(=O)O` [Example 21, (S)-3-[4-(2,6-Dichlorobenzoylamino)phenyl]-2-(3-{2-[(thiophen-2-ylmethyl)sulfamoyl]phenyl}ureido)propionic acid], the IC50 is under 100 nM. For the compound `O=C(Nc1ccccc1S(=O)(=O)c1ccccc1)N[C@@H](Cc1ccc(NCc2c(Cl)cncc2Cl)cc1)C(=O)O` [Example 110, (S)-2-[3-(2-Benzenesulfonylphenyl)ureido]-3-{4-[(3,5-dichloropyridin-4-ylmethyl)amino]phenyl}propionic acid], the half-inhibitory concentration (IC50) was under 100 nM.

`O=C(Nc1ccccc1Sc1c(Cl)cncc1Cl)N[C@@H](Cc1ccc(NC(=O)c2c(Cl)cncc2Cl)cc1)C(=O)O` [Example 98, (S)-3-(4-{[1-(3,5-Dichloropyridin-4-yl)methanoyl]amino}phenyl)-2-{3-[2-(3,5-dichloropyridin-4-ylsulfanyl)phenyl]ureido}propionic acid]: the IC50 was under 100 nM.

Regarding `O=C(Nc1ccccc1S(=O)(=O)N1CCCCC1)N[C@@H](Cc1ccc(Oc2nccc3ccncc23)cc1)C(=O)O` [Example 140, (S)-3-[4-([2,7]Naphthyridin-1-yloxy)phenyl]-2-{3-[2-(piperidine-1-sulfonyl)phenyl]ureido}propionic acid], the IC50 was under 100 nM. The result for `O=C(Nc1ccccc1S(=O)(=O)c1ccccc1)N[C@@H](Cc1ccc(Nc2nccc3ccncc23)cc1)C(=O)O` [Example 128, (S)-2-[3-(2-Benzenesulfonylphenyl)ureido]-3-[4-([2,7]naphthyridin-1-ylamino)phenyl]propionic acid] reads under 100 nM; that for `O=C(Nc1ccc(C[C@H](NC(=S)Nc2ccccc2S(=O)(=O)N2CCCCC2)C(=O)O)cc1)c1c(Cl)cncc1Cl` [Example 147], under 100 nM. The result for `CN(C(=O)N[C@@H](Cc1ccc(NC(=O)c2c(Cl)cncc2Cl)cc1)C(=O)O)c1ccccc1C(=O)N(C)C1CCCCC1` [Example 81] reads under 100 nM; that for `Cc1csc2nc(Sc3ccccc3NC(=O)N[C@@H](Cc3ccc(NC(=O)c4c(Cl)cncc4Cl)cc3)C(=O)O)cnc12` [Example 96, (S)-3-(4-{[1-(3,5-Dichloropyridin-4-yl)methanoyl]amino}phenyl)-2-(3-[2-(7-methylthieno[2,3-b]pyrazin-3-ylsulfanyl)phenyl]ureido}propionic acid], under 100 nM; that for `O=C(Nc1ccccc1S(=O)(=O)N1CCCCC1)N[C@@H](Cc1ccc(Nc2nccc3cnccc23)cc1)C(=O)O` [Example 124, (S)-3-[4-([2,6]Naphthyridin-1-ylamino)phenyl]-2-{3-[2-(piperidine-1-sulfonyl)phenyl]ureido}propionic acid], under 100 nM.

`O=C(Nc1ccccc1S(=O)(=O)c1ccccc1)N[C@@H](Cc1ccc(Oc2nccc3cnccc23)cc1)C(=O)O` [Example 134, (S)-2-[3-(2-Benzenesulfonylphenyl)ureido]-3-[4-([2,6]naphthyridin-1-yloxy)phenyl]propionic acid]: the IC50 is under 100 nM. Take `CN(C(=O)c1ccccc1N(Cc1ccccc1)C(=O)N[C@@H](Cc1ccc(NC(=O)c2c(Cl)cncc2Cl)cc1)C(=O)O)C1CCCCC1` [Example 85]: the 50% inhibitory concentration (IC50) is under 100 nM. With `CC(C)(C)S(=O)(=O)c1ccccc1NC(=O)N[C@@H](Cc1ccc(NC(=O)c2c(Cl)cncc2Cl)cc1)C(=O)O` [Example 94, (S)-3-(4-{[1-(3,5-Dichloropyridin-4-yl)methanoyl]amino}phenyl)-2-{3-[2-(2-methylpropane-2-sulfonyl)phenyl]ureido}propionic acid], the half-inhibitory concentration (IC50) is under 100 nM. With `CN(C(=S)N[C@@H](Cc1ccc(NC(=O)c2c(Cl)cncc2Cl)cc1)C(=O)O)c1ccccc1C(=O)N(C)C1CCCCC1` [Example 146], the 50% inhibitory concentration (IC50) is under 100 nM.

Regarding `O=C(Nc1ccccc1S(=O)(=O)c1ccccc1)N[C@@H](Cc1ccc(NC(=O)c2c(Br)cncc2Br)cc1)C(=O)O` [Example 106, (S)-2-[3-(2-Benzenesulfonylphenyl)ureido]-3-(4-{[1-(3,5-dibromopyridin-4-yl)-methanoyl]amino}phenyl)propionic acid], the IC50 was under 100 nM. Consider `CCCCCN(C(=O)N[C@@H](Cc1ccc(NC(=O)c2c(Cl)cncc2Cl)cc1)C(=O)O)c1ccccc1C(=O)N(C)C1CCCCC1` [Example 84], for which the concentration for half-maximal inhibition (IC50) was under 100 nM. The result for `O=C(Nc1cccnc1S(=O)(=O)c1ccccc1)N[C@@H](Cc1ccc(NC(=O)c2c(Cl)cccc2Cl)cc1)C(=O)O` [Example 58, (S)-2-[3-(2-Benzenesulfonylpyridin-3-yl)ureido]-3-[4-(2,6-dichlorobenzoylamino)phenyl]propionic acid] reads under 100 nM. The same measure for `O=C(Nc1cc(Cl)ccc1S(=O)(=O)c1ccccc1)N[C@@H](Cc1ccc(NC(=O)c2c(Cl)cccc2Cl)cc1)C(=O)O` [Example 48, (S)-2-[3-(2-Benzenesulfonyl-5-chlorophenyl)ureido]-3-[4-(2,6-dichlorobenzoylamino)phenyl]propionic acid]: under 100 nM. The same measure for `CN(C1CCCCC1)S(=O)(=O)c1ccccc1NC(=O)N[C@@H](Cc1ccc(NC(=O)c2c(Cl)cncc2Cl)cc1)C(=O)O` [Example 66]: under 100 nM.
